Patent publication EP0791056B1, “LIPID-CLEAVAGE ENZYME COMPLEX” (priority 1994, dated 1996)

How the values were obtained:
[1] = test system: Phospholipase D, Typ I, aus Kohl; test: Enzymatic cleavage of AZT-DMDOPE, detection of cleavage products by thin-layer chromatography; assay type: biochemical; details: 10 mg AZT-DMDOPE in 0,1 M Tris, 0,1 mg enzyme, 15 h + 6 h at 37 °C; at the height of the lipid phosphate
Protocol: (§1) 10 mg (3'-Desoxy-3'-azidothymidin)-5'-phosphorsäure-(3-dodecyl-mercapto-2-decyl-oxy)-propylester (AZT-DMDOPE) werden in 0,5 ml 0,1 M Tris-Pufferlösung suspendiert und nach Zugabe des Enzyms (0,5 mg bei Phosphodiesterase und 0,1 mg bei Phospholipase/Nuclease) 15 Stunden bei 37 °C inkubiert. Anschließend wird die Lösung dünnschichtchromatographisch untersucht. Nach Zugabe von 5 Tropfen gesättigter NaHCO3-Lösung wurde weitere 6 Stunden bei 37 °C inkubiert und anschließend die Lösung dünnschichtchromatographisch untersucht.
(§2) Durch Dünnschichtchromatographie mit verschiedenen Elutionsmitteln wurde die Lösung hinsichtlich der Bildung der möglichen Spaltprodukte (AZT, AZT-monophosphat, DMDOP und Lipidmonophosphat) untersucht.
(§3) • a) Phospholipase C aus Bacillus cereus, 2000 U/0,5 ml, Boehringer Mannheim GmbH • b) Phospholipase D, Typ I, aus Kohl, 150 - 300 U/mg, Sigma • c) Phosphodiesterase aus Kalbsmilz, 2 U/mg, Boehringer Mannheim GmbH • d) Phosphodiesterase aus Schlangengift, Boehringer Mannheim GmbH • e) Nuclease aus Staphylococcus aureus, 15 000 U/mg, Boehringer Mannheim GmbH • f) LCE (Lipid-Cleavage-Enzyme)

[2] = biological target: T1, Phospholipase C aus Bacillus cereus (Bacillus cereus, UniProt P09598); test: as above; assay type: biochemical; details: 10 mg AZT-DMDOPE in 0,1 M Tris, 0,1 mg enzyme, 15 h + 6 h at 37 °C
T1 construct: purchased Boehringer Mannheim GmbH
T1 sequence (P09598 39-283 limits assumed): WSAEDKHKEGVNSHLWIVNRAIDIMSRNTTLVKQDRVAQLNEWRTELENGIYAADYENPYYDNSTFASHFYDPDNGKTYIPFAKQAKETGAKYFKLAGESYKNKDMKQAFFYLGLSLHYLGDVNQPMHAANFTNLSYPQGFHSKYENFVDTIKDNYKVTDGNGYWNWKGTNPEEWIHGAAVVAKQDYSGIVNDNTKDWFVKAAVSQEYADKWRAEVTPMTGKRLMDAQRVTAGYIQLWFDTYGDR
Protocol: as §1, §2, §3

[3] = biological target: T2, Nuclease aus Staphylococcus aureus (Staphylococcus aureus, UniProt P00644); test: as above; assay type: biochemical; details: 10 mg AZT-DMDOPE in 0,1 M Tris, 0,1 mg enzyme, 15 h + 6 h at 37 °C
T2 construct: purchased Boehringer Mannheim GmbH
Protocol: as §1, §2, §3

[4] = test system: Phosphodiesterase aus Kalbsmilz; test: as above; assay type: biochemical; details: 10 mg AZT-DMDOPE in 0,1 M Tris, 0,5 mg enzyme, 15 h + 6 h at 37 °C
Protocol: as §1, §2, §3

[5] = test system: LCE (Lipid-Cleavage-Enzyme); test: as above; assay type: biochemical; details: 10 mg AZT-DMDOPE in 0,1 M Tris, 15 h + 6 h at 37 °C
Protocol: as §1, §2, §3

stimulierten humanen PBL = test: Intracellular concentrations of AZT and AZT nucleotides (radioimmunoassay) in stimulated human PBL; details: for maximale intrazelluläre Konzentrationen an freiem AZT: without alkaline phosphatase; for maximale Konzentrationen an AZT und phosphorylierten AZT-Nukleotiden: with alkaline phosphatase
Text: Zur Bestimmung der intrazellulären Konzentrationen an AZT und/oder AZT-Nukleotiden nach Inkubation mit AZT-DMDOPE bzw. AZT wurden humane PBL aus "Buffy coat" isoliert.
Hierfür wurde "Buffy-coat" von gesunden Spendern gemischt und durch Zentrifugation in einem isotonischen Medium mit einer Dichte von 1.077 g/ml fraktioniert. Da mononukleare Blutzellen (Monozyten und Lymphozyten) eine geringere Dichte als Erythrozyten und polymorphkernige Granulozyten haben, bilden sie einen Ring an der Grenze zwischen Trennmedium und Probe und können mit Hilfe einer Pipette abgenommen werden. Erythrozyten und polymorphkernige Granulozyten sedimentieren aufgrund ihrer höheren Dichte durch das Medium und lassen sich somit von PBL separieren. Zur Stimulation der Zellproliferation wurde Phytohämaglutinin A (Mukoprotein) (PHA-M), der mitogene Lektinextrakt aus der roten Feuerbohne (Phaseolus vulgaris), eingesetzt. Phytohämagglutinin ist eine Familie von 5 Isolektinen, die als Tetramere vorliegen. Die Untereinheiten bestehen aus einem lymphozytenreaktiven Typ-L und einem erythrozytenreaktiven Typ-E. Typ-L hat eine hohe Affinität zu Lymphozytenoberflächenrezeptoren und ist somit verantwortlich für die mitogenen Eigenschaften. Die Stimulation der Lymphozyten wurde in KPMI 1640 Komplettmedium III für 72 h bei 37 °C und 5 % CO2 durchgeführt. Nach Beendigung der Stimulation wurden zur Erhöhung der Zellzahl die Zellen für weitere 24 h in RPMI 1640 Komplettmedium IV kultiviert.
Zur Bestimmung der intrazellulären Konzentrationen an AZT und AZT-Nukleotiden wurden die Zellen in RPMI 1640 Komplettmedium II mit einer Dichte von 1 x 10^6 Zellen/ml in Gewebekulturflaschen (50 ml/25 cm^2) überführt, und in Anwesenheit von 0.03 bzw. 0.3 µg AZT/ml (Charge 15) und 1 bzw. 10 µg AZT-DMDOPE/ml für 1 - 24 h inkubiert.
Die Kulturen wurden anschließend für 1, 3, 6 und 24 h bei 37 °C und 5 % CO2 inkubiert. AZT und seine Nukleotide wurden anschließend mit 60 % Methanol extrahiert. Die extrahierten Nukleotide wurden mit alkalischer Phosphatase quantitativ zu AZT dephosphoryliert, da nur AZT, nicht jedoch die entsprechenden Nukleotide mit Hilfe eines Radioimmuno-Assays detektiert werden kann.
Die Konzentrationen an intrazellulärem AZT, die mit Hilfe des Radioimmuno-Assays bestimmt wurden, setzten sich dementsprechend aus der des AZT und den der AZT-Nukleotide zusammen. Eine separate Quantifizierung der Konzentrationen an AZT-MP, AZT-DP und AZT-TP wurde nicht durchgeführt.
Diese Experimente wurden an stimulierten humanen PBL durchgeführt.
Hierfür wurden Zellsuspensionen mit einer Dichte von 10^6 Zellen/ml mit 1 bzw. 10 µg AZT-DMDOPE/ml für 6 bzw. 24 h bei 37 °C und 5 % CO2 inkubiert.
Zur quantitativen Bestimmung von AZT wurde ein kommerzieller ^125J-AZT RIA Test-Kit verwendet. Puffer und Lösungen wurden gemäß den Angaben des Herstellers angesetzt und im Test-Kit eingesetzt. Die Reaktionsansätze wurden nach untenstehendem Schema (Tab. ) pipettiert, vorsichtig gemischt und für 2 h bei Raumtemperatur inkubiert. Anschließend wurden zur Präzipitation des Komplexes aus ^125J-AZT und des AZT-Antikörpers (aus Kaninchen) 500 µl des Ziege-Anti-Kaninchen-Antikörpers hinzugefügt. Die Ansätze wurden gemischt und erneut bei Raumtemperatur für 30 min inkubiert.

P3X63Ag8.653-Zellen = test: Intracellular concentrations of AZT and AZT nucleotides (radioimmunoassay) in thymidine kinase deficient cells; assay type: in vitro ADME; details: for maximale Konzentrationen an AZT und AZT-Nukleotiden: after 6 h; for maximale Konzentrationen, nur AZT erfaßt: after 24 h, without alkaline phosphatase; for Substanzspiegel an phosphoryliertem AZT: comparison before/after alkaline phosphatase
Text: Die Bestimmung der intrazellulären Konzentrationen an AZT und AZT-Nukleotiden in Thymidikinasedefizienten Zellen sollte weitere Erkenntnisse über die intrazelluläre Spaltung der Testsubstanz AZT-DMDOPE liefern. Intrazelluläres AZT kann in diesen Zellen aufgrund eines Mangels an Thymidin-Kinase (TK) nicht in ATZ-MP und somit in das therapeutisch wirksame AZT-TP überführt werden. Die Bestimmung der intrazellulären Konzentrationen an AZT und AZT-Nukleotiden nach Inkubation mit AZT-DMDOPE könnte somit einen weiteren Hinweis auf die Spaltung der Teststubstanz geben.
Hierfür wurden in Gewebekulturschalen (60 x 15 mm) 1 x 10^7 Zellen in RPMI 1640 Komplettmedium I mit 0.03 bzw. 0.3 µg AZT/ml und 1 bzw. 10 µg AZT-DMDOPE/ml über 6, 24 und 48 h inkubiert. Nach Extraktion von AZT und der AZT-Nukleotide und einer Behandlung mit alkalischer Phosphatase wurde die Konzentration an AZT mit Hilfe des Radioimmuno-Assays bestimmt.

[6] = 10 µg AZT-DMDOPE/ml, after 24 h

## CCCCCCCCCCCCSCC(COP(=O)(O)OC[C@H]1O[C@@H](n2cc(C)c(=O)[nH]c2=O)C[C@@H]1N=[N+]=[N-])OCCCCCCCCCC (stereo partly shown) [AZT-DMDOPE, (3'-Desoxy-3'-azidothymidin)-5'-phosphorsäure-(3-dodecyl-mercapto-2-decyloxy)-propylester]
[1]
  Fluoreszenzauslöschung DC: schwach
[2]
  Fluoreszenzauslöschung DC: negativ
[3]
  Fluoreszenzauslöschung DC: negativ
[4]
  Fluoreszenzauslöschung DC: negativ
[5]
  Fluoreszenzauslöschung DC: positiv
Stimulierten humanen PBL; 1 µg AZT-DMDOPE/ml, after 6 h
  maximale intrazelluläre Konzentrationen an freiem AZT: 0.03 ng/10^6 Zellen
Stimulierten humanen PBL; 1 µg AZT-DMDOPE/ml, after 24 h
  maximale Konzentrationen an AZT und phosphorylierten AZT-Nukleotiden: 3.85 ng/10^6 Zellen
Stimulierten humanen PBL; [6]
  maximale Konzentrationen an AZT und phosphorylierten AZT-Nukleotiden: 6.41 ng/10^6 Zellen
  maximale intrazelluläre Konzentrationen an freiem AZT: 0.15 ng/10^6 Zellen
Stimulierten humanen PBL; 1 bzw. 10 µg AZT-DMDOPE/ml, whole incubation time 1 - 24 h
  intrazellulärer Spiegel an AZT und seiner Nukleotiden, Verlauf: stetig steigender
Stimulierten humanen PBL; after 24 h incubation, equipotent concentrations
  intrazelluläre Spiegel im Vergleich zu AZT: identisch
Stimulierten humanen PBL; incubation time 18 - 48 h, further experiments
  intrazelluläre Konzentrationen an AZT und AZT-Nukleotiden im Vergleich zur äquipotenten Konzentration an AZT: größer
P3X63Ag8.653-Zellen; 1 µg AZT-DMDOPE/ml
  maximale Konzentrationen an AZT und AZT-Nukleotiden: 0.55 ng/10^6 Zellen
  maximale Konzentrationen, nur AZT erfaßt: 0.05 ng/mL
  Substanzspiegel an phosphoryliertem AZT: 0.48 ng/10^6 Zellen
P3X63Ag8.653-Zellen; 10 µg AZT-DMDOPE/ml
  maximale Konzentrationen an AZT und AZT-Nukleotiden: 4.40 ng/10^6 Zellen
  maximale Konzentrationen, nur AZT erfaßt: 1.10 ng/mL
  Substanzspiegel an phosphoryliertem AZT: 2.42 ng/10^6 Zellen
P3X63Ag8.653-Zellen; 6, 24 and 48 h incubation
  intrazelluläre Konzentrationen an AZT und AZT-Nukleotiden im Vergleich zu äquipotenten Konzentrationen an AZT: deutlich höher
